Measurements published in US11634396B2 (priority 2021, dated 2023).

biological target: human mOR (Homo sapiens (Human), UniProt P35372); assay: cell-based; settings: not given
Protocol: CHO Tag-lite human mOR stable cell line from Cisbio (NCBI accession number: NM_000914.3, Bedford, Mass.) were seeded and grown to approximately 80% confluence in Ham F-12 with 10% FBS, 50 U/ml penicillin, 50 μg/ml streptomycin, 2 mM Hepes, and 1 mg/ml geneticin (Invitrogen, Carlsbad, Calif.). Cells were then harvested using accutase (Corning. Coming, N.Y.), centrifuged at 1300 RPM for 5 min, and plated at 5000 cells per 5 μL per well in a 5× dilution of stimulation buffer consisting of the HTRF cAMP Gi kit, water and IBMX at 0.5 mM (Cisbio, Bedford, Mass.) in white HTRF low volume 384 well plates (Cisbio, Bedford, Mass.). Plates were then incubated at 37° C. in 5% CO2 for 10 minutes. For the agonist assay, forskolin was added to a final concentration of 4 μM. […] Test compounds were dissolved in DMSO and water, and then serially diluted to working concentrations such that the concentration of DMSO was less than 0.1%. Diluted test compounds were added at 2.5 μL per well, and plates were incubated at 37° C., and 5% CO2 for 15 minutes, and then at room temperature for 15 minutes. Next 5 μl/well of cAMP Eu-cryptate and 5 μl/well of anti-cAMP-d2 (both diluted 1:20 in lysis buffer) were added, and plates were incubated at room temperature for 1 hour. Following incubation, plates were read in a Synergy Neo2 multi-mode reader (Biotek, Winooski, Vt.). […] For the agonist assay, data was normalized using the maximal DAMGO response. Measurements were performed in triplicate and the dose response was fit using nonlinear regression.

human mOR, sequence (P35372 whole entry): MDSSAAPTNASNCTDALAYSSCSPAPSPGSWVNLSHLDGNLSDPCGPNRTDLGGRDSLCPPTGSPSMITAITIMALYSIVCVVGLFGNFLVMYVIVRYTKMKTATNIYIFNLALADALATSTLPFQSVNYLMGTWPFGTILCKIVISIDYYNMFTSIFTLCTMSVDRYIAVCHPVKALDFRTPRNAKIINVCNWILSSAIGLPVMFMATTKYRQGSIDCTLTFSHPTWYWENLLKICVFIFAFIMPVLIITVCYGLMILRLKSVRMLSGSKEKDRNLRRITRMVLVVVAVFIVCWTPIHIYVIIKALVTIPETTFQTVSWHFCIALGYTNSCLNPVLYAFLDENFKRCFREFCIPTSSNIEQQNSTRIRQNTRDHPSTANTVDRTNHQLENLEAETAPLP

Row | SMILES | IC50 [nM]
1 | CN(C)[C@H](CNC(=O)CC(c1cncnc1)C1(C(F)(F)F)CC1)Cc1ccc(C(N)=O)cc1Cl (stereo partly drawn) [Compound 30, 3-chloro-4-[(2S)-2-(dimethylamino)-3-[3-(pyrimidin-5-yl)-3-[1-(trifluoromethyl)cyclopropyl]propanamido]propyl]benzamide] | < 300
2 | CN(C)[C@H](CNC(=O)C[C@H](CC1CC1)c1ccncc1)Cc1ccc(O)cc1 [Compound 298, (S)-4-cyclopropyl-N-((S)-2-(dimethylamino)-3-(4-hydroxyphenyl)propyl)-3-(pyridin-4-yl)butanamide] | < 300
3 | CN(C)[C@H](CNC(=O)C[C@H](c1cccnc1)C1(C(F)(F)F)CC1)Cc1ccc(O)c(F)c1Cl [Compound 257, (R)-N-((S)-3-(2-chloro-3-fluoro-4-hydroxyphenyl)-2-(dimethylamino)propyl)-3-(pyridin-3-yl)-3-(1-(trifluoromethyl)cyclopropyl)propanamide] | < 300
4 | CNC(=O)c1cc(F)c(C[C@@H](CNC(=O)C[C@H](c2cnc(C)nc2)C2(C(F)(F)F)CC2)N(C)C)c(F)c1 [Compound 105, 4-((S)-2-(dimethylamino)-3-((R)-3-(2-methylpyrimidin-5-yl)-3-(1-(trifluoromethyl)cyclopropyl)propanamido)propyl)-3,5-difluoro-N-methylbenzamide] | 300 to 3000
5 | CN(C)[C@H](CNC(=O)C[C@H](c1ccncc1)C1CC1)Cc1ccc(O)c(F)c1Cl [Compound 258, (S)-N-((S)-3-(2-chloro-3-fluoro-4-hydroxyphenyl)-2-(dimethylamino)propyl)-3-cyclopropyl-3-(pyridin-4-yl)propanamide] | < 300
6 | CN(C)[C@H](CNC(=O)C[C@H](CC1CC1)c1ccncc1)Cc1ccc(O)cc1Cl [Compound 260, (S)-N-((S)-3-(2-chloro-4-hydroxyphenyl)-2-(dimethylamino)propyl)-4-cyclopropyl-3-(pyridin-4-yl)butanamide] | < 300
7 | Cc1cc(O)cc(C)c1C[C@@H](CNC(=O)CC(c1cncc(F)c1)C1(C(F)(F)F)CC1)N(C)C (stereo partly drawn) [Compound 247, N-((S)-2-(dimethylamino)-3-(4-hydroxy-2,6-dimethylphenyl)propyl)-3-(5-fluoropyridin-3-yl)-3-(1-(trifluoromethyl)cyclopropyl)propanamide] | < 300
8 | CN(C)[C@H](CNC(=O)C[C@H](c1ccncc1)C1CC1)Cc1c(F)cc(O)cc1F [Compound 239, (S)-3-cyclopropyl-N-((S)-3-(2,6-difluoro-4-hydroxyphenyl)-2-(dimethylamino)propyl)-3-(pyridin-4-yl)propanamide] | < 300
9 | CNC(=O)c1ccc(C[C@@H](CNC(=O)C[C@H](c2cncc(Cl)c2)C2(C(F)(F)F)CC2)N(C)C)c(Cl)c1 [Compound 114, 3-chloro-4-((S)-3-((R)-3-(5-chloropyridin-3-yl)-3-(1-(trifluoromethyl)cyclopropyl)propanamido)-2-(dimethylamino)propyl)-N-methylbenzamide] | < 300
10 | CNC(=O)c1ccc(C[C@@H](CNC(=O)C[C@H](CC2CC2)c2ccccn2)N(C)C)c(C)c1 [Compound 139, 4-((S)-3-((S)-4-cyclopropyl-3-(pyridin-2-yl)butanamido)-2-(dimethylamino)propyl)-N,3-dimethylbenzamide] | > 3000
11 | Cc1cnc([C@@H](CC(=O)NC[C@H](Cc2ccc(C(N)=O)c(F)c2)N(C)C)C2(C(F)(F)F)CC2)nc1 [Compound 57, 4-((S)-2-(dimethylamino)-3-((S)-3-(5-methylpyrimidin-2-yl)-3-(1-(trifluoromethyl)cyclopropyl)propanamido)propyl)-2-fluorobenzamide] | 300 to 3000
12 | Cc1cc([C@@H](CC(=O)NC[C@H](Cc2ccc(O)cc2)N(C)C)C2(C(F)(F)F)CC2)cs1 [Compound 322, (S)-N-((S)-2-(dimethylamino)-3-(4-hydroxyphenyl)propyl)-3-(5-methylthiophen-3-yl)-3-(1-(trifluoromethyl)cyclopropyl)propanamide] | < 300
13 | Cc1ccc([C@@H](CC(=O)NC[C@H](Cc2ccc(O)cc2)N(C)C)C2(C(F)(F)F)CC2)s1 [Compound 293, (S)-N-((S)-2-(dimethylamino)-3-(4-hydroxyphenyl)propyl)-3-(5-methylthiophen-2-yl)-3-(1-(trifluoromethyl)cyclopropyl)propanamide] | < 300
14 | Cc1c(C[C@@H](CNC(=O)C[C@H](c2ccncc2)C2(C(F)(F)F)CC2)N(C)C)ccc2[nH]c(=O)oc12 [Compound 170, (R)-N-((S)-2-(dimethylamino)-3-(7-methyl-2-oxo-2,3-dihydrobenzo[d]oxazol-6-yl)propyl)-3-(pyridin-4-yl)-3-(1-(trifluoromethyl)cyclopropyl)propanamide] | < 300
15 | CN(C)[C@H](CNC(=O)C[C@H](c1cccnc1)C1(C(F)(F)F)CC1)Cc1ccc(O)cc1 [Compound 306, (R)-N-((S)-2-(dimethylamino)-3-(4-hydroxyphenyl)propyl)-3-(pyridin-3-yl)-3-(1-(trifluoromethyl)cyclopropyl)propanamide] | < 300
16 | CNC(=O)c1ccc(C[C@@H](CNC(=O)CC(c2cc(C)ccn2)C2(C(F)(F)F)CC2)N(C)C)c(Cl)c1 (stereo partly drawn) [Compound 118, 3-chloro-4-((2S)-2-(dimethylamino)-3-(3-(4-methylpyridin-2-yl)-3-(1-(trifluoromethyl)cyclopropyl)propanamido)propyl)-N-methylbenzamide] | > 3000
17 | CN(C)[C@H](CNC(=O)CC(c1ncccn1)C1(C(F)(F)F)CC1)Cc1ccc(O)c(Cl)c1 (stereo partly drawn) [Compound 285, N-((S)-3-(3-chloro-4-hydroxyphenyl)-2-(dimethylamino)propyl)-3-(pyrimidin-2-yl)-3-(1-(trifluoromethyl)cyclopropyl)propanamide] | < 300
18 | Cc1cc([C@@H](CC(=O)NC[C@H](Cc2ccc(O)cc2)N(C)C)C2(C(F)(F)F)CC2)ccn1 [Compound 299, (R)-N-((S)-2-(dimethylamino)-3-(4-hydroxyphenyl)propyl)-3-(2-methylpyridin-4-yl)-3-(1-(trifluoromethyl)cyclopropyl) propanamide] | < 300
19 | Cc1ncc([C@@H](CC(=O)NC[C@H](Cc2cc(F)c(C(N)=O)c(F)c2)N(C)C)C2(C(F)(F)F)CC2)cn1 [Compound 48, 4-((S)-2-(dimethylamino)-3-((R)-3-(2-methylpyrimidin-5-yl)-3-(1-(trifluoromethyl)cyclopropyl)propanamido)propyl)-2,6-difluorobenzamide] | > 3000
20 | Cc1cc(O)ccc1C[C@@H](CNC(=O)C[C@H](c1cncs1)C1CC1)N(C)C [Compound 264, (S)-3-cyclopropyl-N-((S)-2-(dimethylamino)-3-(4-hydroxy-2-methylphenyl)propyl)-3-(thiazol-5-yl)propanamide] | < 300
21 | Cc1cc(O)ccc1C[C@@H](CNC(=O)CC(c1ccncc1)C1(C(F)(F)F)CC1)N(C)C (stereo partly drawn) [Compound 270, N-((S)-2-(dimethylamino)-3-(4-hydroxy-2-methylphenyl)propyl)-3-(pyridin-4-yl)-3-(1-(trifluoromethyl)cyclopropyl)propanamide] | < 300
22 | CNC(=O)c1ccc(C[C@@H](CNC(=O)CC(c2ncc(Cl)cn2)C2(C(F)(F)F)CC2)N(C)C)c(Cl)c1F (stereo partly drawn) [Compound 112, 3-chloro-4-((2S)-3-(3-(5-chloropyrimidin-2-yl)-3-(1-(trifluoromethyl)cyclopropyl)propanamido)-2-(dimethylamino)propyl)-2-fluoro-N-methylbenzamide] | > 3000

same assay, conditions: CHO Tag-lite human mOR stable cell line; forskolin 4 μM and DAMGO at EC90; read-out: mOR cAMP Antagonist Assay IC50

Row | SMILES | IC50 [nM]
23 | CN(C)[C@H](CNC(=O)C[C@H](c1cncs1)C1CC1)Cc1ccc(O)cc1 [Compound 292, (S)-3-cyclopropyl-N-((S)-2-(dimethylamino)-3-(4-hydroxyphenyl)propyl)-3-(thiazol-5-yl)propanamide] | 300 to 3000
24 | CN[C@H](CNC(=O)C[C@H](c1cccnc1)C1(C(F)(F)F)CC1)Cc1ccc2[nH]ncc2c1 [Compound 200, (R)-N-((S)-3-(1H-indazol-5-yl)-2-(methylamino)propyl)-3-(pyridin-3-yl)-3-(1-(trifluoromethyl)cyclopropyl)propanamide] | 300 to 3000
25 | CN(C)[C@H](CNC(=O)C[C@H](c1cncc(Cl)c1)C1(C(F)(F)F)CC1)Cc1ccc2[nH]ncc2c1 [Compound 205, (R)-3-(5-chloropyridin-3-yl)-N-((S)-2-(dimethylamino)-3-(1H-indazol-5-yl)propyl)-3-(1-(trifluoromethyl)cyclopropyl) propanamide] | < 300
26 | CN(C)[C@H](CNC(=O)C[C@@H](c1cccnc1)C1(C(F)(F)F)CC1)Cc1ccc2[nH]ncc2c1 [Compound 237, (S)-N-((S)-2-(dimethylamino)-3-(1H-indazol-5-yl)propyl)-3-(pyridin-3-yl)-3-(1-(trifluoromethyl)cyclopropyl)propanamide] | < 300

same assay, conditions: read-out: mOR cAMP Antagonist Assay IC50

Row | IC50 [nM] | SMILES
27 | > 3000 | CNC(=O)c1ccc(C[C@@H](CNC(=O)C[C@H](c2cnc(C)nc2)C2(C(F)(F)F)CC2)N(C)C)c(C)c1 [Compound 135, 4-((S)-2-(dimethylamino)-3-((R)-3-(2-methylpyrimidin-5-yl)-3-(1-(trifluoromethyl)cyclopropyl)propanamido)propyl)-N,3-dimethylbenzamide]
